Source: patent US10682409B2, “Therapeutic treatment” (priority 2012, dated 2020)

How the values were obtained:
Format in all cases: in vivo, human
[1] = Examples 3-11: weight and height (velocity, percentile curve, course) of ADHD Patients A-H
Procedure: In an embodiment, a therapeutically effective amount of a therapeutic compound disclosed herein increases the weight or height of an individual is determined by an increase in the individual's weight or height velocity as compared to an individual nor receiving a therapeutic compound for appetite reduction. In an embodiment, weight and/or height velocity can be calculated by taking measurements of height and/or weight of an individual over a period of time and measuring an increase or decrease in an individual's height and/or weight over the period of time. In an embodiment, weight velocity is calculated by taking three time points, time 0 upon initiation of medication to treat ADHD, time 1 addition of an appetite stimulant, time 2 the last data point after initiation of combination treatment. In an embodiment, a formula to calculate weight and height velocity for stimulant alone is (weightT1−weight T0)/days from Time 0 to time 1. In an embodiment, a formula to calculate weight velocity for combination treatment is (weightT2−weight T1)/days from time 1 to time 2. In an embodiment, to evaluate whether weight velocity increased after addition of an appetite stimulant, the weight velocity of time 0 to time 1 is compared to the weight velocity from time 1 to time 2. In an embodiment, height velocity is calculated by taking three time points, time 0 upon initiation of medication to treat ADHD, time 1 addition of an appetite stimulant, time 2 the last data point after initiation of combination treatment. The formula to calculate height velocity for stimulant alone is (weightT1−weight T0)/days from Time 0 to time 1. The formula to calculate height velocity for combination treatment is (weightT2−weight T1)/days from time 1 to time 2. In an embodiment, to evaluate whether height velocity increased after addition of an appetite stimulant, the height velocity of time 0 to time 1 is compared to the height velocity from time 1 to time 2.
Eight patients, identified as patients A-H, that came in suffering from ADHD were treated for ADHD. […] Each patient was then prescribed an appetite simulant to be taken along with the amphetamine or methylphenidate. The patients' weight, height and attentiveness were then followed during the course of treatment.
(§1) The age range of the patients was from 6-15 years of age, with a mean age at the start of treatment for ADHD of 8.4 years of age. The mean age at the start of the combination treatment wherein the patient was administered an amphetamine or methylphenidate and an appetite stimulant was 10.3 years of age. The mean treatment period for the eight patients was 1,108 days with a mean of 2.55 ADHD medication changes during the treatment period. Attentiveness in the eight patients was measured using CGI-S and CGI-I. Patients weight and height velocity were measured to identify a difference in weight and height gain prior to and after addition of an appetite stimulant to the treatment for ADHD. Weight velocity was calculated by taking three time points, time 0 upon initiation of medication to treat ADHD, time 1 addition of an appetite stimulant, time 2 the last data point after initiation of combination treatment. The formula to calculate weight velocity for stimulant alone is (weightT1−weight T0)/days from Time 0 to time 1. The formula to calculate weight velocity for combination treatment is (weightT2−weight T1)/days from time 1 to time 2.

[2] = test system: patients suffering from ADHD; experiment: Clinical Global Impression-Severity scale (CGI-S), Patients A-H
Procedure: In an embodiment, attentiveness is measured using the Clinical Global Impression rating scales to measure symptom severity, treatment response and the efficacy of treatments in treatment studies of patients with mental disorders (Guy, W., 1976). In an embodiment, attentiveness is measure using the Clinical Global Impression-Severity scale (“CGI-S”). In an embodiment, CGI-S is a 7-point scale that requires the clinician to rate the severity of the patient's illness at the time of assessment, relative to the clinician's past experience with patients who have the same diagnosis. Considering total clinical experience, a patient is assessed on severity of mental illness at the time of rating 1, normal, not at all ill; 2, borderline mentally ill; 3, mildly ill; 4, moderately ill; 5, markedly ill; 6, severely ill; or 7, extremely ill. In an embodiment, attentiveness is measured using the Clinical Global Impression-Improvement scale (“CGI-I”). […] In an embodiment, attentiveness is measured using the Clinical Global Impression-Efficacy Index (“CGI-E”).
as §1

[3] = test system: patient suffering from ADHD; experiment: Example 1: patient suffering from ADHD treated with and without an appetite stimulant (appetite, blood glucose, attentiveness by CGI-S and CGI-I)
Text: A patient suffering from ADHD is prescribed and administered an amphetamine to treat ADHD. The patient takes the amphetamine once a day in the morning or afternoon. […] As a result, the glucose level measured in the blood increases as shown in FIG. 1 and the patient's attentiveness recovers as measured by CGI-S and CGI-I. By taking the appetite stimulant during the time when the patient was awake, the patient increased their caloric intake during times when the patient needed to maintain their attentiveness in order to have reasonable cognition and/or social behaviour.

[4] = Example 2 case study: child with ADHD on methylphenidate, then Periactin (height, weight, percentiles, attentiveness); conditions: for height percentile compared to girls their age / weight percentile compared to girls their age / weight: methylphenidate
Text: Case study: A child was presented by their parents for symptoms of attention deficit hyperactivity disorder. Their size at evaluation was 4′1¾″ and 50 lbs, corresponding to the 81st and 50th percentiles when compared to girls their age. […] At three months following the initiation of treatment for ADHD, the child was 4′2⅞″ and 50½ lbs, corresponding to the 85th and 34rd percentiles when compared to girls their age. At one year, they were 4′4⅜″ and 53 lbs, corresponding to the 84th and 36th percentiles when compared to girls their age. At two years they were 4′5¾″ and 54 lbs, corresponding to the 72nd and 17th percentiles when compared to girls their age. At four years of treatment they were 4′7⅜″ and 59 lbs, corresponding to 70th and 14th percentiles when compared to girls their age. At five years of treatment they were 4′9⅞″ and 64½ lbs, corresponding to 59th and 7th percentiles when compared to girls their age.
The child was then prescribed Periactin at a dosage of 2 mg b.i.d. to attempt to stimulate appetite. The dose was taken in the morning and then in the afternoon. After one year they were 4′11½″ and 72½ lbs, corresponding to 33rd and 5th percentiles when compared to girls their age. The child was then prescribed Periactin at a dose of 4 mg b.i.d. After two months on this dose, they were 5′¼″ and 76 lbs, corresponding to 37th and 8th percentiles when compared to girls their age. At 8 months on this dose, they were 5′½″ and 80 lbs, corresponding to 41st and 8th percentiles when compared to girls their age. At one year on this dose, they were 5′2¾″ and 89½ lbs, corresponding to 51st and 17th percentiles when compared to girls their age. At 18 months on this dose, they were 5′3⅝″ and 99½ lbs, corresponding to 56th and 30th percentiles when compared to girls their age. Additionally, the attentiveness of the child increase following the prescription of Periactin as they increased their food intake during the day.

[5] = Patient E, Concerta 27 mg then Focalin XR 10-15 mg alone, FIG. 12
[6] = various forms of methylphenidate

## COC(=O)C(c1ccccc1)C1CCCCN1 (centres unmarked) [Concerta, methylphenidate]
[1]; Patient A, Concerta 18 mg alone, from about day 371, FIG. 4
  weight course: began to lose weight again
[1]; Patient C, Concerta 36 mg alone, FIG. 8
  weight course: little weight gain followed by weight loss
[1]; [5]
  weight course: did not increase substantively
[2]; Patient A, Concerta 18 mg alone, constant for almost 400 days, FIG. 5
  CGI-S score: 4
[2]; Patient C, Concerta 36 mg alone, FIG. 9
  CGI-S score: 5
[2]; Patient D, Concerta 18 mg before combination, FIG. 11
  CGI-S score: 6

## COC(=O)C(c1ccccc1)C1CCCCN1 (centres unmarked) [Daytrana patch, methylphenidate]
[2]; Patient F, Daytrana patch 15 mg (day 469), 20 mg (day 606), FIG. 15
  CGI-S score: 5

## COC(=O)[C@H](c1ccccc1)[C@H]1CCCCN1 [Focalin XR, dexmethylphenidate]
[1]; Patient B, Focalin XR 10 mg then 15 mg alone, FIG. 6
  weight course: slow and then became slightly erratic
[1]; [5]
  weight course: did not increase substantively
[2]; Patient E, Focalin XR 10 mg (before dose increase), FIG. 13
  CGI-S score: 6
[2]; Patient E, Focalin XR 15 mg from day 162, FIG. 13
  CGI-S score: 5
[2]; Patient G, Focalin XR 15 mg alone (dropped from 5), FIG. 17
  CGI-S score: 4

## COC(=O)C(c1ccccc1)C1CCCCN1 (centres unmarked) [Ritalin LA, methylphenidate]
[1]; Patient F, Ritalin LA with Focalin, then Daytrana patch, without Periactin, FIG. 14
  weight course: did not increase substantively
[2]; Patient F, Ritalin LA 20 mg and Focalin 5 mg, FIG. 15
  CGI-S score: 7
[2]; Patient F, Ritalin LA 30 mg and Focalin 5 mg from day 46, FIG. 15
  CGI-S score: 6

## C[C@@H](Cc1ccccc1)NC(=O)[C@@H](N)CCCCN [Vvyanase, lisdexamfetamine]
[1]; Patient H, Vvyanase 40 mg alone, FIG. 18
  weight course: little weight gain
[2]; Patient H, Vvyanase 40 mg alone (dropped from 6), FIG. 19
  CGI-S score: 5

## CC(N)Cc1ccccc1 (centres unmarked) [amphetamine]
[3]; amphetamine once a day alone
  attentiveness as measured by CGI-S and CGI-I: lack of attentiveness
[3]; amphetamine once a day alone, FIG. 1
  glucose level measured in the blood: drops
[3]; amphetamine once a day in the morning or afternoon, alone
  appetite: loss of appetite

## COC(=O)C(c1ccccc1)C1CCCCN1 (centres unmarked) [methylphenidate]
[4]; five years
  height percentile compared to girls their age: 59 percentile
  weight percentile compared to girls their age: 7 percentile
[4]; four years
  height percentile compared to girls their age: 70 percentile
  weight percentile compared to girls their age: 14 percentile
[4]; four years of treatment
  weight: 59 lbs
[4]; one year
  height percentile compared to girls their age: 84 percentile
  weight: 53 lbs
  weight percentile compared to girls their age: 36 percentile
[4]; three months
  height percentile compared to girls their age: 85 percentile
  weight percentile compared to girls their age: 34 percentile
[4]; two years
  height percentile compared to girls their age: 72 percentile
  weight: 54 lbs
  weight percentile compared to girls their age: 17 percentile
[4]; [6]
  response of ADHD to treatment: responded well
  side-effect: suppression of appetite and a lack of significant weight gain
